Laboratory results: patent US8518932B2, “Oxime azetidine derivatives as sphingosine 1-phosphate (S1P) receptor modulators” (Allergan, Inc., priority 2010, dated 2013)

Target: T1, human S1P1 receptor (Homo sapiens, UniProt P21453)
T1 construct: expressed in transfected cells; membranes used
Assay: GTP γ35S binding assay for S1P1 activity
Format: biochemical
Details: membranes of cells stably expressing the S1P1 receptor, test compounds 0.08 to 5,000 nM, 30 min at 25° C.
Experimental: Compounds were synthesized and tested for S1P1 activity using the GTP γ^35S binding assay. These compounds may be assessed for their ability to activate or block activation of the human S1P1 receptor in cells stably expressing the S1P1 receptor.
GTP γ^35S binding was measured in the medium containing (mM) HEPES 25, pH 7.4, MgCl2 10, NaCl 100, dithitothreitol 0.5, digitonin 0.003%, 0.2 nM GTP γ^35S, and 5 μg membrane protein in a volume of 150 μl. Test compounds were included in the concentration range from 0.08 to 5,000 nM unless indicated otherwise. Membranes were incubated with 100 μM 5′-adenylylimmidodiphosphate for 30 min, and subsequently with 10 μM GDP for 10 min on ice. Drug solutions and membrane were mixed, and then reactions were initiated by adding GTP γ^35S and continued for 30 min at 25° C. Reaction mixtures were filtered over Whatman GF/B filters under vacuum, and washed three times with 3 mL of ice-cold buffer (HEPES 25, pH7.4, MgCl2 10 and NaCl 100). Filters were dried and mixed with scintillant, and counted for ^35S activity using a β-counter. Agonist-induced GTP γ^35S binding was obtained by subtracting that in the absence of agonist. Binding data were analyzed using a non-linear regression method. In case of antagonist assay, the reaction mixture contained 10 nM S1P in the presence of test antagonist at concentrations ranging from 0.08 to 5000 nM.

T1 sequence (P21453 whole entry): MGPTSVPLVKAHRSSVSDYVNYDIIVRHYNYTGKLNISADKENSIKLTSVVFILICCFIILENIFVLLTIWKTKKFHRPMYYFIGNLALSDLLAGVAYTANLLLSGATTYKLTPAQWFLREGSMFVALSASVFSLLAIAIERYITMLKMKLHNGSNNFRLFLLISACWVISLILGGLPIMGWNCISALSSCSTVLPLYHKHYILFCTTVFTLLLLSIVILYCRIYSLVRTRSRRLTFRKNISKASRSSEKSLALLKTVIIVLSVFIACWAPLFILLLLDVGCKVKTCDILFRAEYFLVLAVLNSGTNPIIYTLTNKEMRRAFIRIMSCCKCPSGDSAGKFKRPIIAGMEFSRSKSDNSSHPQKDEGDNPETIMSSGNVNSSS

| Structure (SMILES) | EC50 |
| --- | --- |
| C/C(=N\OCC(Cc1ccc(C)c(C)c1)c1cccc(C)c1)c1ccc(CN2CC(C(=O)O)C2)cc1 (centres unmarked) [Compound 1, 1-(4-{(1E)-N-[2-(3-methylphenyl)-3-(3,4-dimethylphenyl)propoxy]ethanimidoyl}benzyl)azetidine-3-carboxylic acid] | 16.5 nM |
| C/C(=N\OCC(Cc1ccc(C)c(C)c1)c1cccc(Cl)c1)c1ccc(CN2CC(C(=O)O)C2)cc1 (centres unmarked) [Compound 2, 1-(4-{(1E)-N-[2-(3-chlorophenyl)-3-(3,4-dimethylphenyl)propoxy]ethanimidoyl}benzyl)azetidine-3-carboxylic acid] | 9.05 nM |
| C/C(=N\OCc1ccc(CN2CC(C(=O)O)C2)cc1)C(Cc1ccc(C)c(C)c1)c1cc(F)cc(F)c1 (centres unmarked) [Compound 4, 1-{4-[({[(1E)-2-(3,5-difluorophenyl)-3-(3,4-dimethylphenyl)-1-methylpropylidene]amino}oxy)methyl]benzyl}azetidine-3-carboxylic acid] | 17.5 nM |

Continued by falling EC50, values first:

| EC50 | Structure (SMILES) |
| --- | --- |
| 230 nM | C/C(=N\OCc1ccc(CN2CC(C(=O)O)C2)cc1)C(Cc1ccc(C)c(C)c1)c1cccc(Cl)c1 (centres unmarked) [Compound 3, 1-{4-[({[(1E)-2-(3-chlorophenyl)-3-(3,4-dimethylphenyl)-1-methylpropylidene]amino}oxy)methyl]benzyl}azetidine-3-carboxylic acid] |
| 163 nM | C/C(=N\OCC(Oc1ccc(C)c(C)c1)c1cccc(Cl)c1)c1ccc(CN2CC(C(=O)O)C2)cc1 (centres unmarked) [Compound 8, 1-(4-{(1E)-N-[2-(3-chlorophenyl)-2-(3,4-dimethylphenoxy)ethoxy]ethanimidoyl}benzyl)azetidine-3-carboxylic acid] |
